Experiments:
[1] = target: T1, Stimulator of interferon genes protein (Homo sapiens, UniProt Q86WV6); experiment: Agonist activity at STING in human PBMC cells assessed as increase in […] by electrochemiluminescence assay; type: cell-based
[2] = target: T1, Stimulator of interferon genes protein; experiment: Competitive binding affinity to human recombinant C-terminal Avi-tag STING using Alexa 488 probe incubated for 15 mins by FRET based assay

T1 sequence (Q86WV6 whole entry): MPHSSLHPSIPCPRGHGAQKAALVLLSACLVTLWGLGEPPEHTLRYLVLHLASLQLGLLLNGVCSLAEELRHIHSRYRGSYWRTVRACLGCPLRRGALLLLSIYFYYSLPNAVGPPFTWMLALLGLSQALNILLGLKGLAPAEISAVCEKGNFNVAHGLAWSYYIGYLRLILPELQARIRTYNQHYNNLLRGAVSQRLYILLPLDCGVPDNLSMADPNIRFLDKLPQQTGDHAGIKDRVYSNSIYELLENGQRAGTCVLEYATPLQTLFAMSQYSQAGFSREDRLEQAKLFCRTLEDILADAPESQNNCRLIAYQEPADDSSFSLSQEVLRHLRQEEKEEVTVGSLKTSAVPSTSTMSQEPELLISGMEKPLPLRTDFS

Compound | EC50 [1] [nM] | IC50 [2] [nM]
CCn1nc(C)cc1C(=O)/N=c1\n(C)c2ccccc2n1C/C=C/Cn1/c(=N/C(=O)c2cc(C)nn2CC)n(C)c2cccc(CN3CCOCC3)c21 | < 1 | < 1
CCn1nc(C)cc1C(=O)/N=c1\n(C)c2cccc(OC)c2n1C/C=C/Cn1/c(=N/C(=O)c2cc(C)nn2CC)n(C)c2cccc(OCCCO)c21 | < 1 | < 1
CCn1nc(C)cc1C(=O)/N=c1\n(C)c2ccccc2n1C/C=C/Cn1/c(=N/C(=O)c2cc(C)nn2CC)n(C)c2cccc(CN3CCCCC3)c21 | < 1 | < 1
CCn1nc(C)cc1C(=O)/N=c1\n(C)c2ccccc2n1C/C=C/Cn1/c(=N/C(=O)c2cc(C)nn2CC)n(C)c2cccc(C(O)CO)c21 (configuration not stated) | 1 | < 1

Now from value to compound:

EC50 [1] [nM] | IC50 [2] [nM] | Compound
< 1 | < 1 | CCn1nc(C)cc1C(=O)/N=c1\n(C)c2ccccc2n1C/C=C/Cn1/c(=N/C(=O)c2cc(C)nn2CC)n(C)c2cccc(CN3CCCCCC3)c21
< 1 | < 1 | CCn1nc(C)cc1C(=O)/N=c1\n(C)c2ccccc2n1C/C=C/Cn1/c(=N/C(=O)c2cc(C)nn2CC)n(C)c2c(CO)cccc21

Source: ChEMBL document CHEMBL4665912, “Novel Compounds as STING Modulators for Treating Hepatitis B Virus Infections” (ACS Med Chem Lett, 2020)
